# Literature values in patent US20210338713A1, “Reduction of Pulmonary Inflammation Using Therapeutic Gas Mixtures” (Brain Cancer Research Institute, priority 2020, published 2021).
# Tests used:
# ovine model of ARDS = conditions: inhalation, P<0.05
# [1] = test system: pediatric patients with ARDS
# RDS patients = conditions: surviving patients, six months post-treatment, low-dose iNO
# [2] = in combination with oxygen
# [3] = in vivo
smiles,measurement,setting,value
[N]=O [nitric oxide],arterial PO2,ovine model of ARDS,increase
same,venous admixture (Qva/QT),ovine model of ARDS; without altering cardiac output,decrease
same,pulmonary arterial pressure (PAP) and resistance,ovine model of ARDS; without any systemic hemodynamic effects,decrease
same,patients with improved oxygenation,[1]; inhaled,15 of 17
same,mean pulmonary artery pressure and intrapulmonary shunt,"[1]; inhaled, without changing systemic arterial pressure or pulmonary capillary wedge pressure",lowered
same,"survival, patients with ARDS","[1]; low-dose inhaled NO (3 to 10 ppm) for 1 to 24 days, 5 of 10 patients",50%
same,"survival, non-ARDS patients","[1]; low-dose inhaled NO (3 to 10 ppm) for 1 to 24 days, 7 of 7 patients",100%
same,values for select pulmonary function tests versus placebo-treated patients,RDS patients,significantly better
[Xe] [xenon],concentrations at which xenon exhibits anaesthetic effects,[2],10-70 vol. %
same,toxic effects on main organs,[3],does not induce significant toxic effects
